System: bovine corneas
Experiment: BCOP (Bovine Corneal Opacity and Permeability) assay of ocular irritancy
Description: A BCOP (Bovine Corneal Opacity and Permeability) assay was carried out on polyhydantoin quat compounds of the invention using a test system developed by Gautheron et al.L, "Bovine Corneal Opacity and Permeability Test: An in Vitro Assay of Ocular Irritancy" Fundamental and Applied Toxicology, 18: 442-449 (1992). The system measures two important properties which are predictive of irritation: corneal opacity and permeability. The following classification system for in vitro scores was used:
from 25.1 to 55=moderate irritant
from 55.1 and above=severe irritant
Two polyhydantoin quaternary compounds, having formulas IV and V, were tested using known antimicrobial compositions, ethanol and a didecyl dimethyl ammonium chloride (Bardac 2250, Lonza Inc., Fair Lawn, N.J.), as controls. The test samples were prepared as 0.1% active solutions in distilled water.
In this test, bovine corneas (from slaughterhouse animals) were mounted between two tissue culture media reservoirs in holders which function both as treatment chambers and as cuvettes for subsequent direct measurement of corneal opacity. […]
After completion of the incubation period, the resultant damage was assessed both by quantitative measurement of opacity change, and by indirect measurement of corneal cell damage as evidenced by increased passage of fluorescein.

## CCO [Ethanol, ethanol]
  BCOP SCORE: 68.7

— US5785963A, “Polymeric hydantoin quaternary compounds, methods of making” (Lonza, Inc., priority 1996, dated 1998)
